A short description of one data set: in vitro. The conditions noted are these: human, plasma.
Data set [1] in a line: Intestinal mucosal permeation using Caco-2 cell monolayers. The conditions noted are these: human. On the technique in general: Passage across Caco-2 layers is used to estimate intestinal permeability.
Description: The Caco-2 cell culture medium was prepared consisting of Dulbecco's Modified Eagle's Medium (DMEM) with high glucose and L-glutamine supplemented with 10% FBS, 1× penicillin-streptomycin mixture and 1× non-essential amino acids (NEAA). • 2. The 50 μL of culture medium was added to each well of the Transwell insert. Transwell insert was removed from reservoir and 25 mL of culture medium was added. • 3. Incubated at 37° C., 5% CO2 for 1 hour. Plates were ready for cell seeding. • 4. The cells were cultivated in T-75 flasks in a cell culture incubator set at 37° C., 5% CO2, 95% relative humidity. The cells were allowed to reach 80-90% confluence before detaching and splitting. • 5. The cultivated cells were rinsed in T-75 flasks with 5 mL PBS. Aspirated off, 1.5 mL trypsin/EDTA was added, and incubated at 37° C. for approximately 5 to 10 minutes or until the cells detach and float. Trypsin/EDTA was inactivated by adding excess serum containing medium. • 6. The cell suspension was moved to a conical tube and cells were pelleted by centrifugation at 120×g for 10 minutes. • 7. The cells were resuspended in seeding medium at a density of 6.86×10^5 cells/mL. This cell concentration can be used to seed 2.40×10^5 cells/cm^2. […] Seeding and Feeding of Caco-2 Cells in Transwell Plates • 1. 50 μL of above cell suspension was added to each well of a previously prepared Transwell plate. • 2. The plate was incubated for 14-18 days. The medium was replaced every other day, beginning no sooner than 48 hours after initial plating. • 3. The procedure for medium changes was as follows. The plate was removed from incubator and placed in hood. The medium was aspirated from reservoir and each Transwell insert. 75 μL of culture medium was added to each well of Transwell inserts and 25 mL of culture medium was added to reservoir tray. The plate was returned to incubator.
When the 14-day Caco-2 cultured cells have reached confluence and are differentiated, they were ready to be used for transport studies. • 2. The medium was removed from reservoir and Transwell inserts. • 3. 75 μL of pre-warmed culture medium was added to each transwell insert and 25 mL of reservoir tray. • 4. The electrical resistance across the monolayer was measured using automated tissue resistance measuring system (World Precision Instruments, Sarasota, FL). • 5. The electrical resistance was recorded for each well. • 6. Once all wells were measured, the plate was returned to incubator. • 7. TEER of each well was calculated by the equation below. The TEER value of each well should be greater than 230 ohms-cm^2. TEER measurement (ohms)×Area of membrane (cm^2)=TEER value (ohm-cm^2)
The Caco-2 plate was removed from the incubator. Next, the monolayer was washed, and the volume exchanged two times using pre-warmed HBSS (10 mM HEPES, pH 7.4). Then the plate was incubated for 30 minutes at 37° C. • 1 mM stock solutions of control compounds and test compound(s) were prepared in DMSO and diluted with HBSS (10 mM HEPES, pH 7.4) to reach the final concentration of 5 μM. The final concentration of DMSO in the incubation system was 0.5%. Digoxin, prazosin and propranolol were used as control compounds in this assay. • 3. HBSS (10 mM HEPES, pH 7.4) was removed after 30 minutes pre-incubation. • 4. The rate of drug transport was incubated in the apical to basolateral direction. 75 μL of the control compounds and test compound was added to the Transwell insert (apical compartment). The wells were filled in the receiver plate (basolateral compartment) with 235 μL of HBSS (10 mM HEPES, pH 7.4). • 5. The rate of drug transport was determined in the basolateral to apical direction. 235 μL of the control compounds and test compound(s) was added to the receiver plate wells (basolateral compartment). The Transwell insert (apical compartment) was filled with 75 μL of HBSS (10 mM HEPES, pH 7.4). • 6. […] Incubated at 37° C. for 2 hours. • 8.
The test system of data set [2] is low attentive and low motivated rats. As to conditions: doses below the threshold for wet dog shake response; cited from earlier work.
The test system of a further data set is frontal cortex. The conditions noted are these: healthy participants, 15 or 20 mg orally; cited from earlier work.
The conditions of data set [3]: patients; psilocybin-assisted psychotherapy or supportive setting; cited from earlier work.
In another data set the test system is 5-HT2 receptor. The conditions noted are these: rat brain, daily administration; cited from earlier work.
For data set [4], the system named is brain's default mode network. The conditions noted are these: humans, intravenous; cited from earlier work.
The target in data set [5] is 5-HT2A and 5-HT2C receptors. The conditions noted are these: compared with LSD; cited from earlier work.

The values that follow come from patent US20260327250A1, “3-ETHYLAMINO-INDOLE DIMERS AS SEROTONERGIC AGENTS USEFUL FOR THE TREATMENT OF DISORDERS RELATED THERETO” (MINDSET PHARMA INC., priority 2022, published 2026).

Each structure is given as a SMILES string. “Also recorded” adds a separate entry of the source. Structures can show the parent of a compound that is named as a salt.

Description for in vitro: The stock solution of test compound was prepared in DMSO and diluted at the final concentration of 200 μM.
• a. 2.5 μL of 200 μM or 1 mM test compound or control compound solution was spiked to 497.5 μL plasma to reach a final concentration of 1 μM or 5 μM. The final concentration of organic solvents was 0.5%. The assay was performed in duplicated. • b. The reaction samples were incubated at 37° C. at approximately 60 rpm in a water bath. • c. Aliquots of 50 μL were taken from the reaction samples at 0, 30, 60, 120, 180 and 240 minutes. The reaction was stopped by the addition of 7 volumes of cold acetonitrile containing internal standards (IS: 100 nM alprazolam, 200 nM imipramine, 200 nM labetalol and 2 μM ketoprofen). • d. All samples were vortexed for 2 minutes, followed by centrifugation at 3,220 g for 30 minutes to precipitate proteins. 100 μL of the supernatant was transferred to a new plate. The supernatant was diluted with ultrapure water according to the LC-MS signal response and peak shape.
Samples were Analyzed by LC-MS/MS. • LC system: Shimadzu • MS analysis: Triple Quad™ 6500+ from AB Inc (Canada) with an ESI interface • Column temperature: 40° C. • Column: Xselect® Hss T3 2.5μ (2.1×30 mm) coupled with preguard column • Mobile phase: 0.1% formic acid in water (A) and 0.1% formic acid in acetonitrile (B)
All calculations were carried out using Microsoft Excel. Remaining percentages of parent compounds at each time point were estimated by determining the peak area ratios from extracted ion chromatograms.

In “in vitro”, `CN(C)CCc1c[nH]c2cccc(OC(=O)CCCC(=O)Oc3cccc4[nH]cc(CCN(C)C)c34)c12` [Compound I-24, Bis(3-(2-(dimethylamino)ethyl)-1H-indol-4-yl) glutarate] came in with a fraction remaining at 0.5 h of 0%, an amount remaining at 1 h of 0%, a fraction remaining at 2 h of 0% and a fraction remaining at 3 h of 0%. In the data set “in vitro”, this molecule gave a share remaining at 4 h of 0%.
With `CC(C)N(CCc1c[nH]c2cccc(OC(=O)CCCC(=O)Oc3cccc4[nH]cc(CCN(C(C)C)C(C)C)c34)c12)C(C)C` [Compound I-37, Bis(3-(2-(diisopropylamino)ethyl)-1H-indol-4-yl) glutarate dihydrochloride], in data set [1] (Caco-2, pH 7.4), the Papp A→B at 2 h, 5 µM was found to be 0.54 ×10⁻⁶ cm/s; the Papp B→A at 2 h, 5 µM worked out at 11.3 ×10⁻⁶ cm/s; the efflux ratio at 2 h, 5 µM came to 21. The recovery at 2 h, 5 µM in data set [1] (Caco-2, pH 7.4, Percentage recovery A→B, apical to basolateral) was determined as 74.9%. This molecule came in with a recovery at 2 h, 5 µM in data set [1] (Caco-2, pH 7.4, Percentage recovery B→A, basolateral to apical) of 107%.
Take `CN(C)CCc1c[nH]c2cccc(OP(=O)(O)O)c12` [Psilocybin]: the task performance entry in data set [2] is “improved performance on the 5-choice serial reaction time and progressive ratio tasks”. In addition, the “absolute metabolic rate of glucose” value in the data set with frontal cortex was “increased absolute metabolic rate of glucose in frontal, and to a lesser extent in other, cortical regions as well as in striatal and limbic subcortical structures”. Besides, the “relief of depression and anxiety” value in data set [3] was “unprecedented positive relief of anxiety and depression; also recorded: significant and sustained anti-depressant and anxiolytic effects”. Also, the 5-HT2 receptor density entry in the data set on 5-HT2 receptor is recorded as “reduce 5-HT2 receptor density in rat brain”. Further, the oscillatory power entry in data set [4] is on record as “decreases in oscillatory power in areas of the brain's default mode network”. Moreover, the “K(i)” value in data set [5] was “lower K(i) for both 5-HT2A and 5-HT2C receptors than LSD”.

A word on the share remaining: it is the share of the starting amount still present when the sample was taken. A high value points to greater stability. For orientation: Papp A→B means how fast a substance crosses the layer from the apical side. By Papp B→A is commonly meant the apparent permeability from the basolateral to the apical side of a cell layer. As a reminder, the efflux ratio is a quotient of directional permeabilities that is used to spot active efflux.
